In patent US9833497B2, “Human originated EGF domain proteins and use of the same” (CHENGDU SOURCEBIO LIMITED-LIABILITY COMPANY, priority 2013, dated 2017):

What was measured:
Format in all cases: cell-based
E. coli BL21 = assay: MIC against Gram-negative bacteria: E. coli BL21; details: 5×10^5 CFU/mL; for MIC E. coli BL21: two-fold serial dilution
Outline: (§1)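 LB broth cultures at McFarland 0.5, spun down, resuspended, diluted to 5×10^5 CFU/mL final. Two-fold serial dilutions of purified human EGF domain proteins, triplicate. 37° C, 175 rpm shaking. Endpoint: no visible growth.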

Proteus mirabilis = assay: MIC against Gram-negative bacteria: Proteus mirabilis; details: 5×10^5 CFU/mL; for MIC P. mirabilis: two-fold serial dilution
Outline: as §1

Citrobacter diversus = assay: MIC against Gram-negative bacteria: Citrobacter diversus; details: 5×10^5 CFU/mL; for MIC C. diversus: two-fold serial dilution
Outline: as §1

Serratia marcescens = assay: MIC against Gram-negative bacteria: Serratia marcescens; details: 5×10^5 CFU/mL; for MIC S. marcescens: two-fold serial dilution
Outline: as §1

Klebsiella pneumonia = assay: MIC against Gram-negative bacteria: Klebsiella pneumonia; details: 5×10^5 CFU/mL; for MIC K. pneumonia: two-fold serial dilution
Outline: as §1

Pseudomonas aeruginosa = assay: MIC against Gram-negative bacteria: Pseudomonas aeruginosa; details: 5×10^5 CFU/mL; for MIC P. aeruginosa: two-fold serial dilution
Outline: as §1

Moraxella catarrhalis = assay: MIC against Gram-negative bacteria: Moraxella catarrhalis; details: 5×10^5 CFU/mL; for MIC M. catarrhalis: two-fold serial dilution
Outline: as §1

Aeromonas hydrophila = assay: MIC against Gram-negative bacteria: Aeromonas hydrophila; details: 5×10^5 CFU/mL; for MIC A. hydrophila: two-fold serial dilution
Outline: as §1

Enterobacter cloacae = assay: MIC against Gram-negative bacteria: Enterobacter cloacae; details: 5×10^5 CFU/mL; for MIC E. cloacae: two-fold serial dilution
Outline: as §1

E. coli DH5α = assay: Antibacterial activity: MIC and growth curve against E. coli DH5α in 96-well plate; details: minimal inhibitory concentration against E. coli DH5α; 96-well plate, 5×10^5 CFU/mL, 37° C., judged after 8 h
Outline: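 Log-phase DH5α (OD600 about 0.5, 37° C, 185 rpm in LB) was pelleted, resuspended in fresh LB and seeded at 5×10^5 CFU/mL with recombinant protein at 50, 25 and 12.5 μg/mL (two-fold series), in triplicate. Plates were shaken at 175 rpm, 37° C, and OD600 was read every 30 min. MIC was the lowest concentration with no growth.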

Proteus vulgaris = assay: MIC against Gram-negative bacteria: Proteus vulgaris; details: 5×10^5 CFU/mL; for MIC P. vulgaris: two-fold serial dilution
Outline: as §1

[1] = E. coli BL21, 96-well plate, 37° C., 10 h
[2] = Proteus mirabilis, 96-well plate, 37° C., 10 h
[3] = Citrobacter diversus, 96-well plate, 37° C., 10 h
[4] = Serratia marcescens, 96-well plate, 37° C., 10 h
[5] = Klebsiella pneumonia, 96-well plate, 37° C., 10 h
[6] = Pseudomonas aeruginosa, 96-well plate, 37° C., 10 h
[7] = Moraxella catarrhalis, 96-well plate, 37° C., 10 h
[8] = Aeromonas hydrophila, 96-well plate, 37° C., 10 h
[9] = Enterobacter cloacae, 96-well plate, 37° C., 10 h
[10] = Proteus vulgaris, 96-well plate, 37° C., 10 h
[11] = E. coli BL21, 10 h cultivation at 37° C.
[12] = P. mirabilis, 10 h cultivation at 37° C.
[13] = C. diversus, 10 h cultivation at 37° C.
[14] = S. marcescens, 10 h cultivation at 37° C.
[15] = K. pneumonia, 10 h cultivation at 37° C.
[16] = P. aeruginosa, 10 h cultivation at 37° C.
[17] = M. catarrhalis, 10 h cultivation at 37° C.
[18] = A. hydrophila, 10 h cultivation at 37° C.
[19] = E. cloacae, 10 h cultivation at 37° C.
[20] = P. vulgaris, 10 h cultivation at 37° C.

“PRT1214 (GRENCTFAPCLEGGTCILSPKGASCNCPHPYTGDRCE; listed as Homo sapiens)” was tested, and the “MIC against E. coli BL21” value (E. coli BL21; [1]) was 12.5 µg/mL, the “MIC against P. mirabilis” value (Proteus mirabilis; [2]) was 50 µg/mL and the “MIC against C. diversus” value (Citrobacter diversus; [3]) was 12.5 µg/mL. The “MIC against S. marcescens” value (Serratia marcescens; [4]) was 25 µg/mL, the “MIC against K. pneumonia” value (Klebsiella pneumonia; [5]) was 25 µg/mL and the “MIC against P. aeruginosa” value (Pseudomonas aeruginosa; [6]) was 50 µg/mL. The “MIC against M. catarrhalis” value (Moraxella catarrhalis; [7]) was 25 µg/mL, the “MIC against A. hydrophila” value (Aeromonas hydrophila; [8]) was 50 µg/mL and the “MIC against E. cloacae” value (Enterobacter cloacae; [9]) was 12.5 µg/mL. For the same substance, the MIC (E. coli DH5α) was 25 µg/mL and the “MIC against P. vulgaris” value (Proteus vulgaris; [10]) was 12.5 µg/mL.
“PRT1062 (LQGNCSRLGCQHHCVPTLDGPTCYCNSSFQLQADGKTCK; listed as Homo sapiens)” was tested, and the “MIC E. coli BL21” value (E. coli BL21; 10 h cultivation at 37° C.) was 50 µg/mL, the “MIC P. mirabilis” value (Proteus mirabilis; 10 h cultivation at 37° C.) was 12.5 µg/mL and the “MIC C. diversus” value (Citrobacter diversus; 10 h cultivation at 37° C.) was 50 µg/mL. The “MIC S. marcescens” value (Serratia marcescens; 10 h cultivation at 37° C.) was 50 µg/mL, the “MIC K. pneumonia” value (Klebsiella pneumonia; 10 h cultivation at 37° C.) was 12.5 µg/mL and the “MIC P. aeruginosa” value (Pseudomonas aeruginosa; 10 h cultivation at 37° C.) was 25 µg/mL. The “MIC M. catarrhalis” value (Moraxella catarrhalis; 10 h cultivation at 37° C.) was 25 µg/mL, the “MIC A. hydrophila” value (Aeromonas hydrophila; 10 h cultivation at 37° C.) was 25 µg/mL and the “MIC E. cloacae” value (Enterobacter cloacae; 10 h cultivation at 37° C.) was 25 µg/mL. For the same substance, the MIC (E. coli DH5α) was 25 µg/mL and the “MIC P. vulgaris” value (Proteus vulgaris; 10 h cultivation at 37° C.) was 25 µg/mL.
With “PRT90 (CDCYPVGSTSRSCAPHSGQCPCRPGALGRQCNSCDSPFAEVTASGCRV; listed as Homo sapiens)” the “MIC (μg/mL) E. coli BL21” value (E. coli BL21; [1]) was 12.5 µg/mL, the “MIC (μg/mL) P. mirabilis” value (Proteus mirabilis; [2]) was 25 µg/mL and the “MIC (μg/mL) C. diversus” value (Citrobacter diversus; [3]) was 25 µg/mL. For the same substance, the “MIC (μg/mL) S. marcescens” value (Serratia marcescens; [4]) was 12.5 µg/mL, the “MIC (μg/mL) K. pneumonia” value (Klebsiella pneumonia; [5]) was 12.5 µg/mL and the “MIC (μg/mL) P. aeruginosa” value (Pseudomonas aeruginosa; [6]) was 12.5 µg/mL. For the same substance, the “MIC (μg/mL) M. catarrhalis” value (Moraxella catarrhalis; [7]) was 12.5 µg/mL, the “MIC (μg/mL) A. hydrophila” value (Aeromonas hydrophila; [8]) was 12.5 µg/mL and the “MIC (μg/mL) E. cloacae” value (Enterobacter cloacae; [9]) was 12.5 µg/mL. The MIC (E. coli DH5α) was 50 µg/mL and the “MIC (μg/mL) P. vulgaris” value (Proteus vulgaris; [10]) was 12.5 µg/mL.
With “PRT787 (RQICDCLNNSTCDHITGTCYCSPGWKGARCD; listed as Homo sapiens)” the “MIC (μg/mL) E. coli BL21” value (E. coli BL21; [11]) was 12.5 µg/mL, the “MIC (μg/mL) P. mirabilis” value (Proteus mirabilis; [12]) was 25 µg/mL and the “MIC (μg/mL) C. diversus” value (Citrobacter diversus; [13]) was 25 µg/mL. The “MIC (μg/mL) S. marcescens” value (Serratia marcescens; [14]) was 12.5 µg/mL, the “MIC (μg/mL) K. pneumonia” value (Klebsiella pneumonia; [15]) was 12.5 µg/mL and the “MIC (μg/mL) P. aeruginosa” value (Pseudomonas aeruginosa; [16]) was 12.5 µg/mL. The “MIC (μg/mL) M. catarrhalis” value (Moraxella catarrhalis; [17]) was 50 µg/mL, the “MIC (μg/mL) A. hydrophila” value (Aeromonas hydrophila; [18]) was 12.5 µg/mL and the “MIC (μg/mL) E. cloacae” value (Enterobacter cloacae; [19]) was 12.5 µg/mL. The MIC (E. coli DH5α) was 12.5 µg/mL and the “MIC (μg/mL) P. vulgaris” value (Proteus vulgaris; [20]) was 25 µg/mL.
With “PRT1072 (TQQVCAGYCANNSTCTVNQGNQPQCRCLPGFLGDRCQ; listed as Homo sapiens)” the “MIC E. coli BL21” value (E. coli BL21; 10 h cultivation at 37° C.) was 12.5 µg/mL, the “MIC P. mirabilis” value (Proteus mirabilis; 10 h cultivation at 37° C.) was 12.5 µg/mL and the “MIC C. diversus” value (Citrobacter diversus; 10 h cultivation at 37° C.) was 50 µg/mL. For the same substance, the “MIC S. marcescens” value (Serratia marcescens; 10 h cultivation at 37° C.) was 12.5 µg/mL, the “MIC K. pneumonia” value (Klebsiella pneumonia; 10 h cultivation at 37° C.) was 25 µg/mL and the “MIC P. aeruginosa” value (Pseudomonas aeruginosa; 10 h cultivation at 37° C.) was 12.5 µg/mL. The “MIC M. catarrhalis” value (Moraxella catarrhalis; 10 h cultivation at 37° C.) was 12.5 µg/mL, the “MIC A. hydrophila” value (Aeromonas hydrophila; 10 h cultivation at 37° C.) was 12.5 µg/mL and the “MIC E. cloacae” value (Enterobacter cloacae; 10 h cultivation at 37° C.) was 50 µg/mL. For the same substance, the MIC (E. coli DH5α) was 50 µg/mL and the “MIC P. vulgaris” value (Proteus vulgaris; 10 h cultivation at 37° C.) was 12.5 µg/mL.
In the case of “PRT265 (CQDGHGGCSEHANCSQVGTMVTCTCLPDYEGDGWSC; listed as Homo sapiens)”, the “MIC (μg/mL) E. coli BL21” value (E. coli BL21; [11]) is reported as 12.5 µg/mL, the “MIC (μg/mL) P. mirabilis” value (Proteus mirabilis; [12]) is reported as 25 µg/mL and the “MIC (μg/mL) C. diversus” value (Citrobacter diversus; [13]) is reported as 25 µg/mL. The “MIC (μg/mL) S. marcescens” value (Serratia marcescens; [14]) was 25 µg/mL, the “MIC (μg/mL) K. pneumonia” value (Klebsiella pneumonia; [15]) was 12.5 µg/mL and the “MIC (μg/mL) P. aeruginosa” value (Pseudomonas aeruginosa; [16]) was 25 µg/mL. The “MIC (μg/mL) M. catarrhalis” value (Moraxella catarrhalis; [17]) was 25 µg/mL, the “MIC (μg/mL) A. hydrophila” value (Aeromonas hydrophila; [18]) was 12.5 µg/mL and the “MIC (μg/mL) E. cloacae” value (Enterobacter cloacae; [19]) was 25 µg/mL. The MIC (E. coli DH5α) was 25 µg/mL and the “MIC (μg/mL) P. vulgaris” value (Proteus vulgaris; [20]) was 50 µg/mL.
“PRT93 (PLLHCAPGFCFPGVACIQTESGARCGPCPAGFTGNGSHCT; listed as Homo sapiens)” was tested, and the “MIC (μg/mL) E. coli BL21” value (E. coli BL21; [1]) was 12.5 µg/mL, the “MIC (μg/mL) P. mirabilis” value (Proteus mirabilis; [2]) was 12.5 µg/mL and the “MIC (μg/mL) C. diversus” value (Citrobacter diversus; [3]) was 100 µg/mL. The “MIC (μg/mL) S. marcescens” value (Serratia marcescens; [4]) was 12.5 µg/mL, the “MIC (μg/mL) K. pneumonia” value (Klebsiella pneumonia; [5]) was 12.5 µg/mL and the “MIC (μg/mL) P. aeruginosa” value (Pseudomonas aeruginosa; [6]) was 50 µg/mL. The “MIC (μg/mL) M. catarrhalis” value (Moraxella catarrhalis; [7]) was 25 µg/mL, the “MIC (μg/mL) A. hydrophila” value (Aeromonas hydrophila; [8]) was 25 µg/mL and the “MIC (μg/mL) E. cloacae” value (Enterobacter cloacae; [9]) was 12.5 µg/mL. The MIC (E. coli DH5α) was 50 µg/mL and the “MIC (μg/mL) P. vulgaris” value (Proteus vulgaris; [10]) was 12.5 µg/mL.
